Consider 28 molecules from BindingDB's records for doi:10.1016/j.bmcl.2006.03.041 (Abbott Laboratories, 2006).

Structures are written as SMILES. pIC50: −log10 of the molar value.

As usually defined, the pIC50 is the IC50 on a negative log10 scale, so that one unit is a factor of ten.

The target of test [1] is T1, RAC-alpha serine/threonine-protein kinase [139-480,S378A,S381A,T450D,S473D] (Homo sapiens, UniProt P31749, S378A/S381A/S473D/T450D).
T1 construct: 139-480
In words: Akt Kinase Assay. How it is done: The kinase assay uses His-Akt1 and a biotinylated peptide as substrate. The biotinylated peptides were immobilized on streptavidin-coated FLASH plates. After reaction, the 33P-phosphopeptide captured on the FLASH plates was measured with a TopCount Packard Instruments […] (Packard Instruments, Boston, MA).

Test [2] addresses T2, Protein kinase C zeta type (Homo sapiens, UniProt Q05513).
T2 sequence (Q05513 whole entry): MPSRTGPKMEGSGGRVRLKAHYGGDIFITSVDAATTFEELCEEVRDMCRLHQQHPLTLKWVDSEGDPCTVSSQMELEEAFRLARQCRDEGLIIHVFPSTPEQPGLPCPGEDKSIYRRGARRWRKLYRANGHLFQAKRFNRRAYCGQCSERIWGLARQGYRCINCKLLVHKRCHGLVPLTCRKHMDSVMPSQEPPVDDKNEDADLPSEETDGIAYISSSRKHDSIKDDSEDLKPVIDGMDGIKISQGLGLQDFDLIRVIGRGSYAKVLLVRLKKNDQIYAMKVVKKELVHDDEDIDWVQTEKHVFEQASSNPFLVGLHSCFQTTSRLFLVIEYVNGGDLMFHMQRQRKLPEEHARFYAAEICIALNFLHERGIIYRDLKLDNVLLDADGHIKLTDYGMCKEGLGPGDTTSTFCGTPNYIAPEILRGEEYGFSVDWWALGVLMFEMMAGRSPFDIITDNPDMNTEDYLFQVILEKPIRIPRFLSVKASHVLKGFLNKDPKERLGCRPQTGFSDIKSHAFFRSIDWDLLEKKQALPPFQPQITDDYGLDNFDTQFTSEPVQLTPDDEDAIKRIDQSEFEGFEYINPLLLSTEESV
In words: PKA/PKC Kinase Assay. The note with it: pH 7.5; 22 °C. As for the experimental part: The kinase assay uses purified recombinant enzyme and a biotinylated peptide as substrate. The biotinylated peptides were immobilized on streptavidin-coated FLASH plates. After reaction, the 33P-phosphopeptide captured on the FLASH plates was measured with a TopCount Packard Instruments gamma counter (Packard Instruments, Boston, MA). IC50s were calculated using the sigmoidal curve fit with the Assay Explorer software (MDL, Los Angeles, CA).

T1 sequence (P31749 139-480 S378A/S381A/T450D/S473D): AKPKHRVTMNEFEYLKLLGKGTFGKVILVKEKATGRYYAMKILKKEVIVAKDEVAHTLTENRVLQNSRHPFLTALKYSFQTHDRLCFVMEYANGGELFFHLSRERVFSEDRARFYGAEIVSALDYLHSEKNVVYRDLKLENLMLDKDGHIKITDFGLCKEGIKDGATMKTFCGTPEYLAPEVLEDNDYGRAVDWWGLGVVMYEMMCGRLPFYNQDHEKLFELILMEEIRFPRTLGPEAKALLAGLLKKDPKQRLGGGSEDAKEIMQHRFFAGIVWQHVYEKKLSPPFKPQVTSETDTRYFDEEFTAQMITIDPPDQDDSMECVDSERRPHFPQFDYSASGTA

For `N[C@H](COc1cncc(-c2ccc3cnc(-c4ccco4)cc3c2)c1)Cc1c[nH]c2ccccc12` [6-{5-[(2S)-2-amino-3-(1H-indol-3-yl)propoxy]pyridin-3-yl}-3-(furan-2-yl)isoquinoline], in test [1], the pIC50 was 7.24.
On the same count and under the same terms, with `Nc1cc2cc(-c3cncc(OC[C@@H](N)Cc4c[nH]c5ccccc45)c3)ccc2cn1` [6-{5-[(2S)-2-amino-3-(1H-indol-3-yl)propoxy]pyridin-3-yl}isoquinolin-3-amine] the figure was 8.47; with `Nc1c(-c2cncc(OC[C@@H](N)Cc3c[nH]c4ccccc34)c2)ccc2cnccc12` [6-{5-[(2S)-2-amino-3-(1H-indol-3-yl)propoxy]pyridin-3-yl}isoquinolin-5-amine], 7.82.
The molecule `C=Cc1ncc(OC[C@@H](N)Cc2c[nH]c3ccccc23)cc1-c1ccc2cnccc2c1` [6-{5-[(2S)-2-amino-3-(1H-indol-3-yl)propoxy]-2-ethenylpyridin-3-yl}isoquinoline] had a pIC50 in test [1] (pH 7.5, 22 °C) of 8.70.
On to `N[C@H](COc1cncc(-c2ccc3cnc(F)cc3c2)c1)Cc1c[nH]c2ccccc12` [6-{5-[(2S)-2-amino-3-(1H-indol-3-yl)propoxy]pyridin-3-yl}-3-fluoroisoquinoline], for which the pIC50 in test [1] was 8.46.
`N#Cc1cc2cc(-c3cncc(OC[C@@H](N)Cc4c[nH]c5ccccc45)c3)ccc2cn1` [6-{5-[(2S)-2-amino-3-(1H-indol-3-yl)propoxy]pyridin-3-yl}isoquinoline-3-carbonitrile] gave a pIC50 in test [1] of 6.19.
In test [1] (pH 7.5, 22 °C), `C#Cc1ncc(OC[C@@H](N)Cc2c[nH]c3ccccc23)cc1-c1ccc2cnccc2c1` [6-{5-[(2S)-2-amino-3-(1H-indol-3-yl)propoxy]-2-ethynylpyridin-3-yl}isoquinoline] gave a negative-log IC50 (pIC50) of 9.10.
`Nc1nccc2cc(-c3cncc(OC[C@@H](N)Cc4c[nH]c5ccccc45)c3)ccc12` [6-{5-[(2S)-2-amino-3-(1H-indol-3-yl)propoxy]pyridin-3-yl}isoquinolin-1-amine] showed a pIC50 in test [1] (pH 7.5, 22 °C) of 6.80.
The same measure, in the same setting: with `N#Cc1ncc(OC[C@@H](N)Cc2c[nH]c3ccccc23)cc1-c1ccc2cnccc2c1` [5-[(2S)-2-amino-3-(1H-indol-3-yl)propoxy]-3-(isoquinolin-6-yl)pyridine-2-carbonitrile] the figure was 8.34.
For the molecule `N[C@H](COc1cnc(C#Cc2ccccc2)c(-c2ccc3cnccc3c2)c1)Cc1c[nH]c2ccccc12` [6-{5-[(2S)-2-amino-3-(1H-indol-3-yl)propoxy]-2-(2-phenylethynyl)pyridin-3-yl}isoquinoline], the pIC50 in test [1] (pH 7.5, 22 °C) was 5.91.
In test [1], `C=Cc1cc2cc(-c3cncc(OC[C@@H](N)Cc4c[nH]c5ccccc45)c3)ccc2cn1` [6-{5-[(2S)-2-amino-3-(1H-indol-3-yl)propoxy]pyridin-3-yl}-3-ethenylisoquinoline] gave a pIC50 of 7.66.
Turning to `N[C@H](COc1cnc(-c2ccco2)c(-c2ccc3cnccc3c2)c1)Cc1c[nH]c2ccccc12` [6-{5-[(2S)-2-amino-3-(1H-indol-3-yl)propoxy]-2-(furan-2-yl)pyridin-3-yl}isoquinoline], the pIC50 in test [1] (pH 7.5, 22 °C) was 8.82.
On the same count and under the same terms, with `N#C/C=C/c1c(OC[C@@H](N)Cc2c[nH]c3ccccc23)cncc1-c1ccc2cnccc2c1` [(2E)-3-{3-[(2S)-2-amino-3-(1H-indol-3-yl)propoxy]-5-(isoquinolin-6-yl)pyridin-4-yl}prop-2-enenitrile] the figure was 6.16.
Molecule `N[C@H](COc1cncc(-c2ccc3cnc(C#Cc4ccccc4)cc3c2)c1)Cc1c[nH]c2ccccc12` [6-{5-[(2S)-2-amino-3-(1H-indol-3-yl)propoxy]pyridin-3-yl}-3-(2-phenylethynyl)isoquinoline] had a pIC50 in test [1] of 7.25.
With `N[C@H](COc1cnc(Cl)c(-c2ccc3cnccc3c2)c1)Cc1c[nH]c2ccccc12` [6-{5-[(2S)-2-amino-3-(1H-indol-3-yl)propoxy]-2-chloropyridin-3-yl}isoquinoline], the pIC50 is less than 5.30 in test [2] and 8.74 in test [1] (pH 7.5, 22 °C).
Molecule `Cc1cc(-c2cncc(OC[C@@H](N)Cc3c[nH]c4ccccc34)c2)cc2ccncc12` [6-{5-[(2S)-2-amino-3-(1H-indol-3-yl)propoxy]pyridin-3-yl}-8-methylisoquinoline] had a pIC50 in test [1] of 6.00.
`CC#Cc1cc2cc(-c3cncc(OC[C@@H](N)Cc4c[nH]c5ccccc45)c3)ccc2cn1` [6-{5-[(2S)-2-amino-3-(1H-indol-3-yl)propoxy]pyridin-3-yl}-3-(prop-1-yn-1-yl)isoquinoline] had a pIC50 in test [1] of 6.74.
For `N[C@H](COc1cncc(-c2ccc3c(F)nccc3c2)c1)Cc1c[nH]c2ccccc12` [6-{5-[(2S)-2-amino-3-(1H-indol-3-yl)propoxy]pyridin-3-yl}-1-fluoroisoquinoline], in test [1] (pH 7.5, 22 °C), the pIC50 was 6.64.
Same read-out and setting: with `COc1nccc2cc(-c3cncc(OC[C@@H](N)Cc4c[nH]c5ccccc45)c3)ccc12` [6-{5-[(2S)-2-amino-3-(1H-indol-3-yl)propoxy]pyridin-3-yl}-1-methoxyisoquinoline] the figure was 4.40.
`N[C@H](COc1cc(-c2ccc3cnccc3c2)cnc1Cl)Cc1c[nH]c2ccccc12` [6-{5-[(2S)-2-amino-3-(1H-indol-3-yl)propoxy]-6-chloropyridin-3-yl}isoquinoline]: the pIC50 in test [1] (pH 7.5, 22 °C) is 7.92.
The molecule `N[C@H](COc1cncc(-c2ccc3cnc(-c4ccccc4)cc3c2)c1)Cc1c[nH]c2ccccc12` [6-{5-[(2S)-2-amino-3-(1H-indol-3-yl)propoxy]pyridin-3-yl}-3-phenylisoquinoline] showed a pIC50 in test [1] of 6.52.
Regarding `Cc1c(OC[C@@H](N)Cc2c[nH]c3ccccc23)cncc1-c1ccc2cnccc2c1` [6-{5-[(2S)-2-amino-3-(1H-indol-3-yl)propoxy]-4-methylpyridin-3-yl}isoquinoline], the pIC50 in test [1] (pH 7.5, 22 °C) was 7.08.
Molecule `CCc1cc2cc(-c3cncc(OC[C@@H](N)Cc4c[nH]c5ccccc45)c3)ccc2cn1` [6-{5-[(2S)-2-amino-3-(1H-indol-3-yl)propoxy]pyridin-3-yl}-3-ethylisoquinoline] had a pIC50 in test [1] of 6.84.
In turn, `N[C@H](COc1cncc(-c2ccc3cnccc3c2)c1)Cc1c[nH]c2ccccc12` [13a (S-)] had a pIC50 in test [1] (pH 7.5, 22 °C) of 8.70.
In test [1] (pH 7.5, 22 °C), `N[C@H](COc1cncc(-c2ccc3c(Cl)nccc3c2)c1)Cc1c[nH]c2ccccc12` [6-{5-[(2S)-2-amino-3-(1H-indol-3-yl)propoxy]pyridin-3-yl}-1-chloroisoquinoline] showed a pIC50 of 6.11.
Take `N[C@H](COc1cncc(-c2ccc3cnc(-c4ccncc4)cc3c2)c1)Cc1c[nH]c2ccccc12` [6-{5-[(2S)-2-amino-3-(1H-indol-3-yl)propoxy]pyridin-3-yl}-3-(pyridin-4-yl)isoquinoline]: in test [1], the pIC50 is 6.91.
In test [1] (pH 7.5, 22 °C), `N[C@H](COc1cncc(-c2ccc3c(=O)[nH]ccc3c2)c1)Cc1c[nH]c2ccccc12` [6-{5-[(2S)-2-amino-3-(1H-indol-3-yl)propoxy]pyridin-3-yl}isoquinolin-1-ol] had a pIC50 of 5.91.
With `N[C@H](COc1cncc(-c2ccc3cnc(Cl)cc3c2)c1)Cc1c[nH]c2ccccc12` [6-{5-[(2S)-2-amino-3-(1H-indol-3-yl)propoxy]pyridin-3-yl}-3-chloroisoquinoline], the pIC50 in test [1] is 6.39.
